Measured values: patent US20060167057A1, “Compounds for the treatment of CNS and amyloid associated diseases” (priority 2004, published 2006)

Molecular target: T1, L1 transport system (large neutral amino acid carrier, L1-system carrier) (Rattus norvegicus, UniProt Q63016)
T1 construct: functionality of their endogenous transporters such as the L1-system carrier; endogenous in cells; host or cells: rat primary cerebrovascular (brain microcapillary) endothelial cells, RBEC
Assay: Competitive binding assay to the brain L1 transport system (L-[U-14C]phenylalanine on rat primary cerebrovascular endothelial cells)
Procedure, shortened: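 Cells were primary cerebral microvascular endothelial cells from cortices of 24-day-old rats, isolated by collagenase/DNAse digestion, dextran separation and mesh filtration.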

T1 sequence (Q63016 whole entry): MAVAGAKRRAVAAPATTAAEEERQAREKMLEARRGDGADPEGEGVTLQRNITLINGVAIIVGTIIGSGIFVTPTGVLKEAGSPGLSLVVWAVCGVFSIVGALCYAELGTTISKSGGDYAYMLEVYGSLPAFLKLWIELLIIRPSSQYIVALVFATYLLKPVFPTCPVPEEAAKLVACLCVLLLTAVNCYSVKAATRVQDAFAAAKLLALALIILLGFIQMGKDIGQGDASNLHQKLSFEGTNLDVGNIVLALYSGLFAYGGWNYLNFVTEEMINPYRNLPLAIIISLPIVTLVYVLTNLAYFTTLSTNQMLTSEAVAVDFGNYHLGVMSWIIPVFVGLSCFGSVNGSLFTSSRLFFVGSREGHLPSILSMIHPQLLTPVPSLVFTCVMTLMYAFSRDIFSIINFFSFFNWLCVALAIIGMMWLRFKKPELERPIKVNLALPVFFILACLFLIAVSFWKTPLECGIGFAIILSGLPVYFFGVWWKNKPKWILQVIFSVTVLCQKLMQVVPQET
T1 sequence (Q794F9 whole entry partner): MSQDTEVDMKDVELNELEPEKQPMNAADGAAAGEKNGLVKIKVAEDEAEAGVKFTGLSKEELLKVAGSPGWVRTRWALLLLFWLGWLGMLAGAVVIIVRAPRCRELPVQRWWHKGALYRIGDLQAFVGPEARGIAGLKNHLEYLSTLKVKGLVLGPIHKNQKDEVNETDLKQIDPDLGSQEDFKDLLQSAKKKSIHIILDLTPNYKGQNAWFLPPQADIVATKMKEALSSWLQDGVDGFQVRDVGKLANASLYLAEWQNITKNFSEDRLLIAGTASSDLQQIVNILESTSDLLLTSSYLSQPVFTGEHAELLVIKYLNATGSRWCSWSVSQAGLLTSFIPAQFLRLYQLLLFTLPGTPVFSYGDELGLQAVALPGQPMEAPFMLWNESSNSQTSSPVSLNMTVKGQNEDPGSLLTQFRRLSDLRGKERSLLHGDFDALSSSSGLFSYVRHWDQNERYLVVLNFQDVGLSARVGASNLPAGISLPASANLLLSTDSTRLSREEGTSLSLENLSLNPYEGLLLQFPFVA

Row | Compound | Comparison with the Binding of Phenylalanine (10^−4 M) | Comparison with the Binding of Phenylalanine (10^−5 M) | Comparison with the Binding of Phenylalanine (10^−6 M)
1 | CN(C)CCn1nnnc1Sc1cccc(-c2cccc(CC(N)C(=O)O)c2)c1 (stereo not drawn) [Compound 103] | 2 (10 < X < 20 Rank 2) | 2 (10 < X < 20 Rank 2) | 2 (10 < X < 20 Rank 2)
2 | NC(Cc1cccc(CSc2nc(-c3ccccc3)c(-c3ccccc3)o2)c1)C(=O)O (stereo not drawn) [Compound 104] | 2 (10 < X < 20 Rank 2) | 3 (X > 20 Rank 3) | 3 (X > 20 Rank 3)
3 | NC(Cc1cccc(-c2cccc(N3CCN(c4ccc(F)cc4)CC3)c2)c1)C(=O)O (stereo not drawn) [Compound 105] | 2 (10 < X < 20 Rank 2) | 2 (10 < X < 20 Rank 2) | 2 (10 < X < 20 Rank 2)
4 | NC(Cc1cccc(-c2cccc(Sc3nc4cc([N+](=O)[O-])ccc4s3)c2)c1)C(=O)O (stereo not drawn) [Compound 109] | 2 (10 < X < 20 Rank 2) | 3 (X > 20 Rank 3) | 3 (X > 20 Rank 3)
5 | NC(Cc1cccc(CSc2nc3ccccc3c(=O)[nH]2)c1)C(=O)O (stereo not drawn) [Compound 110] | 1 (0 < X < 10 Rank 1) | 1 (0 < X < 10 Rank 1) | 1 (0 < X < 10 Rank 1)
6 | Cc1nnc(Sc2cccc(-c3cccc(CC(N)C(=O)O)c3)c2)s1 (stereo not drawn) [Compound 111] | 2 (10 < X < 20 Rank 2) | 3 (X > 20 Rank 3) | 3 (X > 20 Rank 3)
7 | CC(=O)c1ccc(N2CCN(Cc3cccc(CC(N)C(=O)O)c3)CC2)cc1 (stereo not drawn) [Compound 112] | 2 (10 < X < 20 Rank 2) | 3 (X > 20 Rank 3) | 3 (X > 20 Rank 3)
8 | NC(Cc1cccc(-c2cccc(N3CCN(c4ccccn4)CC3)c2)c1)C(=O)O (stereo not drawn) [Compound 113] | 0 (X < 0 Rank 0) | 0 (X < 0 Rank 0) | 2 (10 < X < 20 Rank 2)
9 | NC(Cc1cccc(CSc2ccc3ccccc3n2)c1)C(=O)O (stereo not drawn) [Compound 114] | 0 (X < 0 Rank 0) | 0 (X < 0 Rank 0) | 2 (10 < X < 20 Rank 2)
10 | NC(Cc1cccc(-c2cccc(N3CCc4ccccc4C3)c2)c1)C(=O)O (stereo not drawn) [Compound 115] | 0 (X < 0 Rank 0) | 0 (X < 0 Rank 0) | 1 (0 < X < 10 Rank 1)
11 | NC(Cc1ccc(-c2ccc(CN3CCN(c4cccc(Cl)c4)CC3)cc2)cc1)C(=O)O (stereo not drawn) [Compound 116] | 1 (0 < X < 10 Rank 1) | 2 (10 < X < 20 Rank 2) | 2 (10 < X < 20 Rank 2)
12 | N#CC1(c2ccccc2)CCN(Cc2cccc(CC(N)C(=O)O)n2)CC1 (stereo not drawn) [Compound 117] | 0 (X < 0 Rank 0) | 0 (X < 0 Rank 0) | 1 (0 < X < 10 Rank 1)
13 | CN(C)CCn1nnnc1SCc1ccc(-c2ccc(CC(N)C(=O)O)cc2)cc1 (stereo not drawn) [Compound 118] | 3 (X > 20 Rank 3) | 3 (X > 20 Rank 3) | 3 (X > 20 Rank 3)
14 | NC(Cc1cccc(CSc2nc(-c3ccccc3)c(-c3ccccc3)o2)n1)C(=O)O (stereo not drawn) [Compound 119] | 2 (10 < X < 20 Rank 2) | 3 (X > 20 Rank 3) | 1 (0 < X < 10 Rank 1)
15 | NC(Cc1ccc(-c2ccc(CN3CCN(c4ccc(F)cc4)CC3)cc2)cc1)C(=O)O (stereo not drawn) [Compound 120] | 0 (X < 0 Rank 0) | 1 (0 < X < 10 Rank 1) | 1 (0 < X < 10 Rank 1)
16 | Cc1ccnc(SCc2cccc(CC(N)C(=O)O)n2)n1 (stereo not drawn) [Compound 121] | 0 (X < 0 Rank 0) | 0 (X < 0 Rank 0) | 1 (0 < X < 10 Rank 1)
17 | Cc1nc(SCc2ccc(-c3ccc(CC(N)C(=O)O)cc3)cc2)sc1CC(=O)O (stereo not drawn) [Compound 122] | 0 (X < 0 Rank 0) | 0 (X < 0 Rank 0) | 1 (0 < X < 10 Rank 1)

Row | Compound | Comparison with the Binding of Phenylalanine (10^−4 M) | Comparison with the Binding of Phenylalanine (10^−5 M) | Comparison with the Binding of Phenylalanine (10^−6 M)
18 | NC(Cc1cccc(CSc2nnnn2CC(=O)O)n1)C(=O)O (stereo not drawn) [Compound 123] | 0 (X < 0 Rank 0) | 2 (10 < X < 20 Rank 2) | 2 (10 < X < 20 Rank 2)
19 | NC(Cc1ccc(-c2ccc(CSc3nc4cc([N+](=O)[O-])ccc4[nH]3)cc2)cc1)C(=O)O (stereo not drawn) [Compound 124] | 0 (X < 0 Rank 0) | 1 (0 < X < 10 Rank 1) | 1 (0 < X < 10 Rank 1)
20 | NC(Cc1cccc(CSc2nc3ccccc3c(=O)[nH]2)n1)C(=O)O (stereo not drawn) [Compound 125] | 0 (X < 0 Rank 0) | 1 (0 < X < 10 Rank 1) | 2 (10 < X < 20 Rank 2)
21 | Cc1nnc(SCc2ccc(-c3ccc(CC(N)C(=O)O)cc3)cc2)s1 (stereo not drawn) [Compound 126] | 0 (X < 0 Rank 0) | 1 (0 < X < 10 Rank 1) | 1 (0 < X < 10 Rank 1)
22 | CC(=O)c1ccc(N2CCN(Cc3cccc(CC(N)C(=O)O)n3)CC2)cc1 (stereo not drawn) [Compound 127] | 1 (0 < X < 10 Rank 1) | 2 (10 < X < 20 Rank 2) | 0 (X < 0 Rank 0)
23 | CCOC(=O)c1cnc(SCc2cccc(CC(N)C(=O)O)c2)[nH]c1=O (stereo not drawn) [Compound 131] | 2 (10 < X < 20 Rank 2) | 3 (X > 20 Rank 3) | 3 (X > 20 Rank 3)
24 | NC(Cc1cccc(-c2cccc(Sc3nc(-c4ccccc4)c(-c4ccccc4)o3)c2)c1)C(=O)O (stereo not drawn) [Compound 134] | 0 (X < 0 Rank 0) | 0 (X < 0 Rank 0) | 1 (0 < X < 10 Rank 1)
25 | COc1ccc2[nH]c(SCc3cccc(CC(N)C(=O)O)c3)nc2c1 (stereo not drawn) [Compound 135] | 2 (10 < X < 20 Rank 2) | 3 (X > 20 Rank 3) | 2 (10 < X < 20 Rank 2)
26 | Cc1ccnc(Sc2cccc(-c3cccc(CC(N)C(=O)O)c3)c2)n1 (stereo not drawn) [Compound 136] | 0 (X < 0 Rank 0) | 0 (X < 0 Rank 0) | 3 (X > 20 Rank 3)
27 | NC(Cc1cccc(CSc2ncccc2C(=O)O)c1)C(=O)O (stereo not drawn) [Compound 137] | 0 (X < 0 Rank 0) | 0 (X < 0 Rank 0) | 2 (10 < X < 20 Rank 2)
28 | NC(Cc1cccc(-c2cccc(Sc3nnnn3CC(=O)O)c2)c1)C(=O)O (stereo not drawn) [Compound 138] | 0 (X < 0 Rank 0) | 0 (X < 0 Rank 0) | 1 (0 < X < 10 Rank 1)
29 | Cn1cnnc1SCc1cccc(CC(N)C(=O)O)c1 (stereo not drawn) [Compound 141] | 0 (X < 0 Rank 0) | 0 (X < 0 Rank 0) | 1 (0 < X < 10 Rank 1)
30 | NC(Cc1cccc(-c2cccc(Sc3ccc4ccccc4n3)c2)c1)C(=O)O (stereo not drawn) [Compound 144] | 0 (X < 0 Rank 0) | 0 (X < 0 Rank 0) | 1 (0 < X < 10 Rank 1)
31 | CCOC(=O)c1cnc(SCc2cccc(CC(N)C(=O)O)n2)[nH]c1=O (stereo not drawn) [Compound 146] | 2 (10 < X < 20 Rank 2) | 3 (X > 20 Rank 3) | 3 (X > 20 Rank 3)
32 | N#CC1(c2ccccc2)CCN(Cc2ccc(-c3ccc(CC(N)C(=O)O)cc3)cc2)CC1 (stereo not drawn) [Compound 147] | 0 (X < 0 Rank 0) | 0 (X < 0 Rank 0) | 1 (0 < X < 10 Rank 1)
33 | NC(Cc1cccc(CSc2nc(-c3ccccc3)c(-c3ccccc3)[nH]2)n1)C(=O)O (stereo not drawn) [Compound 148] | 0 (X < 0 Rank 0) | 0 (X < 0 Rank 0) | 2 (10 < X < 20 Rank 2)
